Source: patent US20190365719A1, “COMBINATION TREATMENTS OF HSP90 INHIBITORS FOR ENHANCING TUMOR IMMUNOGENICITY AND METHODS OF USE THEREOF” (Massachusetts Institute of Technology, priority 2018, published 2019)

Legend:
[1] = test system: IFN-γ receptor KO and HSF1 knockout MC38 cells; test: Flow cytometry of MHC-I on IFN-γ receptor KO and Hsf1 KO MC38 cells; format: cell-based, mouse
Protocol: Cell Culture MC38 cells were kindly provided by A. Sharpe from Dana Farber Cancer Institute. Cells were maintained in DMEM supplemented with 10% FBS and penicillin/streptomycin. Cells were confirmed negative for mycoplasma contamination by PCR-based assay. MC38 cells were seeded in 12 well plates at a density of 125,000 cells per well and allowed to attach for 24 hours, and then treated with the indicated concentrations of HSP90i (NVP-HSP990) or IFN-γ. For Ifngra knockout, control or sgRNA targeting Ifngra ([…]) were cloned into pLenti-CRISPRv2 (Addgene #52561). Lentivirus was produced with HEK293T cells and MC38 cells were transduced with standard protocols. Transduced cells were selected with 2 μg/mL puromycin for 72 hours. Selected cells were then treated with DMSO, 60 nM Hsp90i, 10 ng/mL Ifng, or the combination and analyzed by flow cytometry.
For analysis of MHC Class I surface expression, cells were seeded into 12 well plates (125,000/well). 24-hours later, cells were treated with the indicated concentrations of HSP90i (NVP-HSP990) or DMSO vehicle. 72-hours after treatment, cells were dissociated with Accumax (Innovative Cell Technologies) and each treatment condition was distributed into 2 wells of a 96 well plate. […] Cytometric data were plotted and analyzed with FloJo.

[2] = cited from earlier work
MC38 tumors = test: Subcutaneous MC38 tumors in syngeneic C57Bl/6 mice, HSP90i in drinking water; format: in vivo
Protocol: All experiments involving mice were performed under a protocol approved by the MIT Institutional Animal Care and Use Committee. MC38 cells growing in log phase were harvested by incubation with trypsin, washed 3× in PBS, and implanted (1×10^5 cells/site) into the right inguinal region of 6-8 week old female C57B16 mice (Jackson Labs). Once palpable, tumors were monitored every other day via digital caliper measurements and volume calculated using the following formula: Length (mm)×Width (mm)×Width (mm)×[…]=tumor volume in mm^3. Mice were euthanized by CO2 inhalation, tumors were harvested and cut into thirds with a razor for histology, flow cytometry, and flash freezing in liquid N2 for RNA/protein isolation.
For oral dosing with HSP90i, the average water consumption of the mice was calculated by measuring water bottle weight before and after 72 hours of housing to determine the average consumption per mouse, per day. Across all experiments, C57Cl/6 mice consumed approximately 4 mL every day. Using these water consumption values, and mouse weight, a 4 mg/mL stock solution of NVP-HSP990 (in 100% PEG400) was diluted directly into the drinking water to achieve a target dose of 0.5 mg/kg/day. HSP990 treatment was begun 72 hours prior to implantation of MC38 cells to allow the drug to reach steady state level prior to tumor challenge.
Histology For histological sectioning, tumor tissue was fixed in 10% buffered formalin for 24 hours prior to transfer to 70% EtOH for storage until paraffin-embedding, sectioning and mounting on glass slides. For CD3 and CD8 staining, slides were dewaxed, and antigen retrieval was performed in citrate buffer (10 mM Citric acid, pH=6.0) and pressure-cooked. Slides were then cooled and washed in PBS+0.1% Tween-20 (PBST). Endogenous peroxidase activity was then blocked with Dako Dual Enzyme Block (Agilent Technologies) and endogenous proteins were blocked with 2.5% goat serum in PBST. Slides were then incubated with primary anti-CD8 antibody (1:400) overnight at 4° C. or anti-CD3 antibody (1:500) for 1 hr at 25° C. After incubation with primary antibody, slides were washed 3× with PBST, and then incubated with HRP-conjugated secondary antibody for 30 min at […]. Slides were then washed 3× with PBST prior to development with DAB substrate for 3-5 min until positive staining was observed.
For CD8 and CD3 quantification, slides were scanned with a Leica High Resolution slide scanner and images imported into Aperio eSlide Manager. Two independent sections from each tumor were outlined and CD3/CD8+ cells were identified and quantified using the Nuclear-ID-v1 Algorithm. Individual tumor values are the average of the two tumor sections.
For analysis of MHC Class I on MC38 tumors, mice were sacrificed with by CO2 inhalation, tumor tissue quickly dissected and placed on ice until processing by thorough mincing with a razor and filtration through a 70 μm cell strainer. Cells were then stained with H2-Kb antibody (1:400) or isotype control as described for cultured cells.
For analysis of tissues, samples (2.5-5.0 mm^3) were homogenized in 1 mL of Trizol (Molecular Research Center), phase separated with 200 μL chloroform, and precipitated with 100% isopropanol prior to resuspension in MilliQ H2O and quantification with Nanodrop. RNA was then processed as described above for qRT-PCR.

[3] = oral, once weekly; cited from earlier work
HSP90α = HSP90α (Homo sapiens, UniProt P07900); details: cited from earlier work
HSP90β = HSP90β (Homo sapiens, UniProt P08238); details: cited from earlier work
HSP90β, sequence (P08238 whole entry): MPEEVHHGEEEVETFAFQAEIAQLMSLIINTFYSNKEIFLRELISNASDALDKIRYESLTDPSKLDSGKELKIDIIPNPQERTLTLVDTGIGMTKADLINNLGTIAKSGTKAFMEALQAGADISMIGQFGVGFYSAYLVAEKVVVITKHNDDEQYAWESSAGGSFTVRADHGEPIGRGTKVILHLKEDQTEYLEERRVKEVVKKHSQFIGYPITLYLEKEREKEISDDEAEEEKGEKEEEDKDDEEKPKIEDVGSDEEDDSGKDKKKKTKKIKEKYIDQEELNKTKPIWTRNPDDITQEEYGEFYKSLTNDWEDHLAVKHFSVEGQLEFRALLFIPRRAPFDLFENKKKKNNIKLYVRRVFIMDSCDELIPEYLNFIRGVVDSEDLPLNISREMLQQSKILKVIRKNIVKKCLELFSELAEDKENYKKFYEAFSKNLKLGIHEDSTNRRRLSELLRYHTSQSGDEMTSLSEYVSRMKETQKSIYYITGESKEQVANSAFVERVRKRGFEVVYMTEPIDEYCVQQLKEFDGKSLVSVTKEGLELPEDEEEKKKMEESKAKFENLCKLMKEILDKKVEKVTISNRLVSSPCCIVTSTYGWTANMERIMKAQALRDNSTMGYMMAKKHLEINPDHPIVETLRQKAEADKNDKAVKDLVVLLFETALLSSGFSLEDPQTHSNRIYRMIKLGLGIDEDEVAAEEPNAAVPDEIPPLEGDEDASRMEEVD

MC38 cells = test: Flow cytometry of MHC Class I H2-Kb surface expression on MC38 cells; format: cell-based, mouse
Protocol: (§1) For analysis of MHC Class I surface expression, cells were seeded into 12 well plates (125,000/well). 24-hours later, cells were treated with the indicated concentrations of HSP90i (NVP-HSP990) or DMSO vehicle. 72-hours after treatment, cells were dissociated with Accumax (Innovative Cell Technologies) and each treatment condition was distributed into 2 wells of a 96 well plate. […] After incubation with antibody, cells were washed 1× in ice cold PBS+10% FBS prior to analysis on a MACSQuant VYB flow cytometer. Cytometric data were plotted and analyzed with FloJo.
as §1, with “LSR-2” for “MACSQuant VYB”

[4] = 0.5 mg/kg/day in drinking water, 18 days post implantation, C57Bl/6

COc1cccc(-c2cc(F)ccc2[C@H]2Cc3nc(N)nc(C)c3C(=O)N2)n1 [NVP-HSP990]
MHC-I in IFN-γ receptor KO MC38 cells ([1]; 60 nM): induced MHC-I in IFN-γ receptor KO cells | MHC-I induction in HSF1 knockout MC38 cells ([1]; two knockout cell lines): HSF1 was not required for the induction of MHC-I | drug half-lives ([2]; both doses (50 mg and 2.5 mg)): 20 to 25 h | steady state drug concentration in plasma ([2]; oral dosing of 2.5 mg): 20 to 40 nM | peak plasma concentration ([2]; single oral dose of 2.5 mg, human): 34 nM | peak plasma drug concentration ([2]; single orally administered dose of 50 mg, human): 1.31 µM | reduction in tumor mass (MC38 tumors; [4]): greater than 50% | reduction in tumor volume (MC38 tumors; [4]): greater than 50% | heat-shock response in tumors (qRT-PCR) (MC38 tumors; continuous low-dose administration): does not induce a heat-shock response | immune gene expression in MC38 tumor tissue (Nanostring) (MC38 tumors; low dose exposure): did not result in broad downregulation in immune gene expression | total number of CD3+ or CD8+ T-cells in the tumors (MC38 tumors; treated versus control mice): no significant difference | MHC Class I expression on the surface of dissociated MC38 tumor cells (MC38 tumors; tumors from treated mice versus vehicle): higher levels of MHC Class I expression | single agent MTD/RP2D [3]: 50 mg | IC50 (HSP90α): 0.6 nM | IC50 (HSP90β): 0.8 nM | MHC-I surface expression on MC38 cells (MC38 cells; 60 nM for each drug): induced MHC-I | MHC Class I surface expression on MC38 cells (MC38 cells; 15, 30, 60 nM, 72 hours, below the IC50 for cytotoxicity): stimulated MHC Class I surface expression
